Patent publication US12371675B2, “Process and microorganism for synthesis of adipic acid from carboxylic acids” (THE GOVERNING COUNCIL OF THE UNIVERSITY OF TORONTO, priority 2015, dated 2025)
Values belong to the molecule of their own block, whether it stands above or below them.

Key:
[1] = AT activity coupled with alanine and glutamate dehydrogenases; type: biochemical; settings: 10 mM adipaldehyde, alanine and glutamate amino-donors; ND = no activity was detected
[2] = tested on: Rhodococcus jostii aldehyde reductase RHA1_ro05279, SEQ ID NO: 47; test: AR kinetics, aldehyde reduction followed by NAD(P)H oxidation; type: biochemical
Source text: 28 aldehyde reductases from different bacteria were cloned and overexpressed in E. coli. Enzymes purified using affinity chromatography on Ni-NTA resin were screened for reductase activity with adipaldehyde and butyraldehyde in presence of both NADPH and NADH (Table 5). Butyraldehyde was used as a substrate substitute for 4-oxo-butanal, which is not commercially available. Reactions were followed spectrophotometrically, by cofactor oxidation at 340 nm.
(§1) Enzyme activity of purified ARs was measured spectrophotometrically in 96-well plates Reaction mixtures contained 100 mM HEPES buffer (pH 7.5), 0.4 mM NADH/NADPH, 10 mM adipaldehyde or butylaldehyde, and proteins (10 μg for adipaldehyde screen, 2 μg for butyraldehyde screen) in a final volume of 200 μL Reaction mixture for adipaldehyde screening contained 1.8% DMSO. Enzyme reactions were monitored by following the decrease in absorbance at 340 nm (ε340 nm=6,220/M·cm) due to oxidation of NAD(P)H to NAD(P)+.
ARs RHA1_ro05279, PA1146, SC00229, PP_3370 were characterised for saturation with adipaldehyde, PP_3370, PSPTO_2097, RHA1_ro05279, SC00229, TM_0111, PA1146 were characterised for butyraldehyde saturation (Table 10). […] For both substrates maximal kcat/Km with minimal Km values was shown by AR PP 3370 from Pseudomonas putida.

[3] = biological target: Mycobacterium paratuberculosis carboxylate reductase MAP_1040c, SEQ ID NO: 38 (Mycobacterium avium, UniProt A0ACD7BNV2); test: CAR kinetics, ATP/NADPH dependent carboxylic acid reduction
[4] = AR reductase activity, NAD(P)H oxidation at 340 nm; type: biochemical; settings: 10 mM, ND = no activity was detected
Procedure: as §1

[5] = biological target: Bacillus coagulans 36D1 2-enoate reductase EREDBC, SEQ ID NO: 1 (Heyndrickxia coagulans, UniProt A0AAN0T7I1); test: Kinetics of purified EREDBC, NADH oxidation at 340 nm, anaerobic; type: biochemical; settings: for saturation by substrate: anaerobic, aqueous buffer
Procedure: (§2) The C═C reducing activity of EREDs was examined. Enzyme activity of purified EREDs was measured spectrophotometrically in 96-well plates by following incubation for 3-5 min at 30° C. in the anaerobic chamber as described in M. Buhler, H. Simon, Hoppe-Seyler's Zeitschrift fur Physiologische Chemie 1982, 363, 609-625. Buffers and reagents were degassed and sparged with Ar. Reaction mixture contained potassium phosphate (100 mM and pH 7.0), NADH (0.5 mM), indicated substrates, and proteins (0.1-50 μg) in a final volume of 200 μL. Enzyme reactions were monitored by following the decrease in absorbance at 340 nm (ε340 nm=6,220/M·cm) due to oxidation of NADH to NAD+.
(§3) For in vitro biochemical characterization, enzyme activities of purified EREDs were measured with 2-hexenedioic acid, cis-cis-muconic acid, trans-trans muconic acid, trans-cinnamic acid, trans-2-methyl-2-butenoic acid, trans-2-butenoic acid, acrolein, 2-cyclohexen-1-one, and 3-methyl-2-cyclohexenone. […] [Feng, J. et al. Discovery and Characterization of BlsE, a Radical S-Adenosyl-L-methionine Decarboxylase Involved in the Blasticidin S Biosynthetic Pathway. PLoS ONE 8 (2013)].
Kinetic studies of purified EREDBC were performed using 2-hexenedioic acid, 2-cyclohexen-1-one, 3-methyl-2-cyclohexenone, and trans-cinnamic acid as substrates (FIG. 10).
(§4) To increase the dissolved substrate concentration, 2-hexenedioic acid was dissolved in a reaction mixture containing […] (final concentration) isopropanol, and kinetic constants of EREDBC and EREDCA were determined.

[6] = biological target: T1, Mycobacterium smegmatis carboxylate reductase MSMEG_5739, SEQ ID NO: 37 (Mycolicibacterium smegmatis, UniProt A0R484); test: CAR kinetics, ATP/NADPH dependent carboxylic acid reduction
T1 sequence (A0R484 1-1173): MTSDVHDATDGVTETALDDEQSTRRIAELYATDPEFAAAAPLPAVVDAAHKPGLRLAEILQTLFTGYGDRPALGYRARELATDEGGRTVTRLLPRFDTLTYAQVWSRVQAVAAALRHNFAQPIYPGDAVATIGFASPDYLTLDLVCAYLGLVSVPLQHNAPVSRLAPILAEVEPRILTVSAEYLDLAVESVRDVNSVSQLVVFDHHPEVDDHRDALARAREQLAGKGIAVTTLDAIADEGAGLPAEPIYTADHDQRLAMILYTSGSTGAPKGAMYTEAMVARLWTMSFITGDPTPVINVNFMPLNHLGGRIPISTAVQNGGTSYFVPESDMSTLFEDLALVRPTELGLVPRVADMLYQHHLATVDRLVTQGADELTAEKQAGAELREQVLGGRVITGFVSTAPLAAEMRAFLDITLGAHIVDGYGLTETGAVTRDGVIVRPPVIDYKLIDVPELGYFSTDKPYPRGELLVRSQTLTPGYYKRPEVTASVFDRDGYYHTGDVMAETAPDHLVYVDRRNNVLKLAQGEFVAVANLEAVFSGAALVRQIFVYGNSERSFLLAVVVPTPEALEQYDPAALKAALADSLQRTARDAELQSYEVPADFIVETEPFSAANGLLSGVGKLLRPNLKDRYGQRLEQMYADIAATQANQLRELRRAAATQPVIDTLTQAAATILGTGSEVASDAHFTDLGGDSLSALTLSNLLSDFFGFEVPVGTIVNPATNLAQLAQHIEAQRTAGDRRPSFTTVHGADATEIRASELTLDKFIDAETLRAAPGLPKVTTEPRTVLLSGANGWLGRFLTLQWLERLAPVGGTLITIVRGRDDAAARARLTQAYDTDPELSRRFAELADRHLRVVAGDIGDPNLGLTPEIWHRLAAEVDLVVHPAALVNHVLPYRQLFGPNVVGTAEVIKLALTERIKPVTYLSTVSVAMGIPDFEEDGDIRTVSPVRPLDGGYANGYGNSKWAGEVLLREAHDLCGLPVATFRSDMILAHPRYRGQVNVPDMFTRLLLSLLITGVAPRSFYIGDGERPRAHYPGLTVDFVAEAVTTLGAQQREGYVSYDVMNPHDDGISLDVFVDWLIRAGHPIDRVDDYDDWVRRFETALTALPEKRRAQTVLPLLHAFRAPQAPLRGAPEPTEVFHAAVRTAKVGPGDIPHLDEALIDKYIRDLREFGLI

[7] = biological target: T2, Mycobacterium smegmatis carboxylate reductase MSMEG_2956, SEQ ID NO: 70 (Mycolicibacterium smegmatis, UniProt A0QWI7); test: as above
T2 sequence (A0QWI7 1-1168): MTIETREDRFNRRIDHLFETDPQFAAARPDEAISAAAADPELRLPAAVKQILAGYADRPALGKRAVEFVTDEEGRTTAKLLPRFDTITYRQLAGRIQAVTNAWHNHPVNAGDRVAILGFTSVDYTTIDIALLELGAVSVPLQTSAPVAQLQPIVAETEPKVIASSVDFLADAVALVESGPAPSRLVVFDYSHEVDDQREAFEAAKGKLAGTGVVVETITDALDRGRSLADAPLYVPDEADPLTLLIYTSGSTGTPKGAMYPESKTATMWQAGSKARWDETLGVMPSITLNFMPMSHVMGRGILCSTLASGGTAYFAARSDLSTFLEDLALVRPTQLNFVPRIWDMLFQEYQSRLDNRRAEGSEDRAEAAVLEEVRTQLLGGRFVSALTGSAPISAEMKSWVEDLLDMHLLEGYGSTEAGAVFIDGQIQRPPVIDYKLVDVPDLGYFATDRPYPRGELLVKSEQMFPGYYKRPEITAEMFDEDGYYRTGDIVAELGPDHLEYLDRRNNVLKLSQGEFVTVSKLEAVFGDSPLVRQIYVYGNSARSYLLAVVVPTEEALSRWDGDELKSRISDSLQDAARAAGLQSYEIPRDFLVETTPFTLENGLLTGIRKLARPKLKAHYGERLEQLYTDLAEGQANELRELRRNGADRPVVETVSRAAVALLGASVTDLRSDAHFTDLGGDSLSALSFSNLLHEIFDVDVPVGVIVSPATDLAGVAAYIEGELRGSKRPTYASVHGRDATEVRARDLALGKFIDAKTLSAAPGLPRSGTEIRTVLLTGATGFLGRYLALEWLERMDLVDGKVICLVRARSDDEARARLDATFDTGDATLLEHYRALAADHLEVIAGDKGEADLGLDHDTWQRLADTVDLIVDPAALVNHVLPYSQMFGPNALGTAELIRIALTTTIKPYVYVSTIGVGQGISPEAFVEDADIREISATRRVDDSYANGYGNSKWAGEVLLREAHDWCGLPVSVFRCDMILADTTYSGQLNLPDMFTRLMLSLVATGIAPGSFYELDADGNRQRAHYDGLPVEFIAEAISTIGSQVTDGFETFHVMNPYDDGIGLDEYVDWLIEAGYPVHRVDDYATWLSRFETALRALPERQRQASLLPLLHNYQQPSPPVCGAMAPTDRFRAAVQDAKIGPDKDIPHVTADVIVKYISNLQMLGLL

[8] = biological target: T3, Clostridium acetobutylicum DSM 1731 2-enoate reductase EREDCA, SEQ ID NO: 2 (Clostridium acetobutylicum, UniProt Q97DV0); test: Kinetics of purified EREDCA, NADH oxidation at 340 nm, anaerobic; type: biochemical; settings: 4 to 28 mM
T3 sequence (Q97DV0 1-664): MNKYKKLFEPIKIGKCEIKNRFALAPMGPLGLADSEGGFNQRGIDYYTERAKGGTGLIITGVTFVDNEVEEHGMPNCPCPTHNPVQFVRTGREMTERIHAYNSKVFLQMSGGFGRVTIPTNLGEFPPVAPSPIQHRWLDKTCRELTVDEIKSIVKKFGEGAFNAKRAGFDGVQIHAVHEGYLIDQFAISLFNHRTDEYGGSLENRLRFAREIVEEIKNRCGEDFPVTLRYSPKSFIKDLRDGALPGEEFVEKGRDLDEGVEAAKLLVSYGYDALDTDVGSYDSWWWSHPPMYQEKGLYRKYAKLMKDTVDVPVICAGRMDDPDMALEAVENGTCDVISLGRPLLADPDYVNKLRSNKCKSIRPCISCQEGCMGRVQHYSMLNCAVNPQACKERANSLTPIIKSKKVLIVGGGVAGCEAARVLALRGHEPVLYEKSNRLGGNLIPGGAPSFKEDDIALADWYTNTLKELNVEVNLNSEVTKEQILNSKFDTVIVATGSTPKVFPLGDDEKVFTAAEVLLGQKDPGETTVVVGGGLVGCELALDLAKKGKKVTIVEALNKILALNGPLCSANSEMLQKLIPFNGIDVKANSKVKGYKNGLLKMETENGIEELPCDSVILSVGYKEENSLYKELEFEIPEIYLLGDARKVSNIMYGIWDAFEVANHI
Procedure: as §2, §3, §4

[9] = adipaldehyde, cofactor NADH, 1,8% DMSO

Bacillus coagulans 36D1 2-enoate reductase EREDBC, SEQ ID NO: 1, sequence (A0AAN0T7I1 entry or part of it): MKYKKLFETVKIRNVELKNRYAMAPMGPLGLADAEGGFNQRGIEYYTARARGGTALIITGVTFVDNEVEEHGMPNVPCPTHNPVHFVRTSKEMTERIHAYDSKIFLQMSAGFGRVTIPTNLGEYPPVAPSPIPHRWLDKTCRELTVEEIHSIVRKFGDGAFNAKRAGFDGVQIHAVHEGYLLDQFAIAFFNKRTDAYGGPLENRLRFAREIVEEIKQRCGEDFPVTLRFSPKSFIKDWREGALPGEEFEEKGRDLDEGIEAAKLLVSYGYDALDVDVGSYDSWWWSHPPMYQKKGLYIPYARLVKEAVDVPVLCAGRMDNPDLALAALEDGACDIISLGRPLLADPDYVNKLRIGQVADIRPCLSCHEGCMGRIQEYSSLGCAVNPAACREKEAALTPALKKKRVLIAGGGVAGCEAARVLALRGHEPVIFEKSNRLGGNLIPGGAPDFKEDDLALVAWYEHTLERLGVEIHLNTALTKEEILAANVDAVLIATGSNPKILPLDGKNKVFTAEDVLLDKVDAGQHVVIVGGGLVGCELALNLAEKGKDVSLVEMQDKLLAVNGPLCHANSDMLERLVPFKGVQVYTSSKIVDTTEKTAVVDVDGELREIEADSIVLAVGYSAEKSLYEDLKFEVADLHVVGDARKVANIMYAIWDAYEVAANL
Mycobacterium paratuberculosis carboxylate reductase MAP_1040c, SEQ ID NO: 38, sequence (A0ACD7BNV2 entry or part of it): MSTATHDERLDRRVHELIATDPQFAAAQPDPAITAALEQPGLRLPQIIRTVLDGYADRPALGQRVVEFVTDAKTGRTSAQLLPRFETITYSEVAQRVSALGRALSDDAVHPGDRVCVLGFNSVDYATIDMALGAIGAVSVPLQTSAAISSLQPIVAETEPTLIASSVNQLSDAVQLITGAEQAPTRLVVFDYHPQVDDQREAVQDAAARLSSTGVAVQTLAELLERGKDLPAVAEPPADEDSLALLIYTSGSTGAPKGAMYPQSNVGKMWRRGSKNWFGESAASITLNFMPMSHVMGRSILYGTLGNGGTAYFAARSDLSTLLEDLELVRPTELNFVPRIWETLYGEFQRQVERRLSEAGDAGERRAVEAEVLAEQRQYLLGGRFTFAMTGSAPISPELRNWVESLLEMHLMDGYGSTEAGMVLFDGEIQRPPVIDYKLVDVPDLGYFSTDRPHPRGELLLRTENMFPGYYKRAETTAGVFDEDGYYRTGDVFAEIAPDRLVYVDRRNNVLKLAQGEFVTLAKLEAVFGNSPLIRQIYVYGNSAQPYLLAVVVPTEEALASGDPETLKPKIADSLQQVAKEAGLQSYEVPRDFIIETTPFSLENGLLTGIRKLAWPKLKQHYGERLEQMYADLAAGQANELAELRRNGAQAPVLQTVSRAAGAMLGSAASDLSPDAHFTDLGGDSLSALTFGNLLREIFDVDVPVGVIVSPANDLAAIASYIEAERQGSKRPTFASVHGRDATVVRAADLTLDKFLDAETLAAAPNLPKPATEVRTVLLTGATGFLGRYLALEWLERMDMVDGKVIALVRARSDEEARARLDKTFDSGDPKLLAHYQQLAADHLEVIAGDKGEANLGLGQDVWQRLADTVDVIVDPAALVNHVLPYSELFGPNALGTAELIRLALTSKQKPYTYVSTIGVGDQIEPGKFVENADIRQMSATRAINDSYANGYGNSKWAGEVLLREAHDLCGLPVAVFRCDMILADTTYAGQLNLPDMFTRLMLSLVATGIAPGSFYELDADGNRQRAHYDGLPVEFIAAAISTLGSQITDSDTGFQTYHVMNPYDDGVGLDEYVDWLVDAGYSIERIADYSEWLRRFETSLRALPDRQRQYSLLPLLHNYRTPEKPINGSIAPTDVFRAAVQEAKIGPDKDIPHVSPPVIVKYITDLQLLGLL

Molecule: Rsp3534: aminotransferase (AT) from Rhodobacter sphaeroides
Adipaldehyde 10 mM U/mg [1]: 0.034 ± 0.005 U/mg

Km ([2]; butyraldehyde, cofactor NADH): 14.3 ± 0.88 mM
kcat ([2]; butyraldehyde, cofactor NADH): 25.77 ± 0.88 s⁻¹
kcat/Km ([2]; butyraldehyde, cofactor NADH): (1.80 ± 0.06) × ×10^3 M^−1 · s^−1
Km ([2]; butyraldehyde, cofactor NADPH): 1.53 ± 0.39 mM
kcat ([2]; butyraldehyde, cofactor NADPH): 1.28 ± 0.09 s⁻¹
kcat/Km ([2]; butyraldehyde, cofactor NADPH): (8.37 ± 0.59) × ×10^2 M^−1 · s^−1
Molecule: CCCC=O [butyraldehyde]

Molecule: O=C(O)CCCCCO [6-hydroxyhexanoic acid]
kcat [3]: 2.91 ± 0.19 s⁻¹
kcat/Km [3]: 41.58 ± 2.77 M⁻¹ s⁻¹

Molecule: RHA1_ro05279: aldehyde reductase (AR) from Rhodococcus jostii
Activity [U/mg protein] Adipaldehyde ([4]; 1.8% DMSO): 0.721 ± 0.026 U/mg protein
Activity [U/mg protein] Butyraldehyde [4]: 0.905 ± 0.834 U/mg protein

Molecule: CC1=CC(=O)CCC1 [3-methyl-2-cyclohexenone, 3-Methyl-2-cyclohexenone]
saturation by substrate [5]: no saturation

Molecule: O=C(O)CCCCC(=O)O [adipic acid]
Km [6]: 87.5 ± 16.2 mM
kcat [6]: 2.40 ± 0.26 s⁻¹
kcat [7]: 2.73 ± 0.20 s⁻¹
kcat/Km [7]: 25.2 ± 1.83 M⁻¹ s⁻¹

Molecule: O=CCCCCC=O [adipaldehyde]
Km [2, 9]: 6.89 ± 1.38 mM
kcat [2, 9]: 3.67 ± 0.31 s⁻¹
kcat/Km [2, 9]: (5.33 ± 0.45) × ×10^2 M^−1 · s^−1

Molecule: O=C1C=CCCC1 [2-cyclohexen-1-one, 2-Cyclohexen-1-one]
saturation by substrate [5]: no saturation

Molecule: O=C(O)C=CCCC(=O)O (racemic) [2-hexenedioic acid, 2-Hexenedioic acid]
fold higher catalytic efficiency (kcat/Km) of EREDBC compared to EREDCA ([5]; 2-hexenedioic acid in 0.25 mM isopropanol, 2.5 to 35 mM): 14.6 fold
saturation by substrate [5]: no saturation
saturation by substrate [8]: no saturation
